Measured values reported in article PMC4871277 (Biochemical pharmacology, 2015).
Read-outs that look alike come from different tables or passages of the source.

What was measured:
[1] = test system: precision-cut lung slices (PCLS); test: PCLS viability by lactate dehydrogenase; format: cell-based, murine; conditions: C646 concentrations above 25 μM
HDAC1 = HDAC1 (Homo sapiens, UniProt Q13547); test: human recombinant HDAC inhibition assay; format: biochemical; conditions: N.I. = no inhibition
[2] = test system: NF-κB promoter activity in RAW-Blue macrophages; test: RAW-Blue NF-κB reporter gene assay; format: cell-based, murine; conditions: 16 hrs pre-treatment + 4 hrs stimulus
[3] = test system: α-tubulin acetylation in RAW264.7 cells; test: α-tubulin acetylation immunoblot; format: cell-based, murine
HDAC2 = HDAC2 (Homo sapiens, UniProt Q92769); test: human recombinant HDAC inhibition assay and Lineweaver-Burk plots; format: biochemical
[4] = test system: RAW264.7 murine macrophages; test: Gene expression analysis in RAW264.7 by RT-q-PCR after LPS and IFNγ stimulus; format: cell-based
RAW264.7 macrophages = test: Viability assay; format: cell-based, murine; conditions: C646 concentrations above 30 μM, 20 hrs
[5] = test system: murine precision-cut lung slices (PCLS); format: cell-based
HDAC3 = HDAC3 (Homo sapiens, UniProt O15379); test: human recombinant HDAC inhibition assay; format: biochemical; conditions: read-out: Ki value HDAC3
HDAC6 = target: T1, HDAC6 (Homo sapiens, UniProt Q9UBN7); test: human recombinant HDAC inhibition assay and Lineweaver-Burk plots; format: biochemical
T1 sequence (Q9UBN7 1-1215): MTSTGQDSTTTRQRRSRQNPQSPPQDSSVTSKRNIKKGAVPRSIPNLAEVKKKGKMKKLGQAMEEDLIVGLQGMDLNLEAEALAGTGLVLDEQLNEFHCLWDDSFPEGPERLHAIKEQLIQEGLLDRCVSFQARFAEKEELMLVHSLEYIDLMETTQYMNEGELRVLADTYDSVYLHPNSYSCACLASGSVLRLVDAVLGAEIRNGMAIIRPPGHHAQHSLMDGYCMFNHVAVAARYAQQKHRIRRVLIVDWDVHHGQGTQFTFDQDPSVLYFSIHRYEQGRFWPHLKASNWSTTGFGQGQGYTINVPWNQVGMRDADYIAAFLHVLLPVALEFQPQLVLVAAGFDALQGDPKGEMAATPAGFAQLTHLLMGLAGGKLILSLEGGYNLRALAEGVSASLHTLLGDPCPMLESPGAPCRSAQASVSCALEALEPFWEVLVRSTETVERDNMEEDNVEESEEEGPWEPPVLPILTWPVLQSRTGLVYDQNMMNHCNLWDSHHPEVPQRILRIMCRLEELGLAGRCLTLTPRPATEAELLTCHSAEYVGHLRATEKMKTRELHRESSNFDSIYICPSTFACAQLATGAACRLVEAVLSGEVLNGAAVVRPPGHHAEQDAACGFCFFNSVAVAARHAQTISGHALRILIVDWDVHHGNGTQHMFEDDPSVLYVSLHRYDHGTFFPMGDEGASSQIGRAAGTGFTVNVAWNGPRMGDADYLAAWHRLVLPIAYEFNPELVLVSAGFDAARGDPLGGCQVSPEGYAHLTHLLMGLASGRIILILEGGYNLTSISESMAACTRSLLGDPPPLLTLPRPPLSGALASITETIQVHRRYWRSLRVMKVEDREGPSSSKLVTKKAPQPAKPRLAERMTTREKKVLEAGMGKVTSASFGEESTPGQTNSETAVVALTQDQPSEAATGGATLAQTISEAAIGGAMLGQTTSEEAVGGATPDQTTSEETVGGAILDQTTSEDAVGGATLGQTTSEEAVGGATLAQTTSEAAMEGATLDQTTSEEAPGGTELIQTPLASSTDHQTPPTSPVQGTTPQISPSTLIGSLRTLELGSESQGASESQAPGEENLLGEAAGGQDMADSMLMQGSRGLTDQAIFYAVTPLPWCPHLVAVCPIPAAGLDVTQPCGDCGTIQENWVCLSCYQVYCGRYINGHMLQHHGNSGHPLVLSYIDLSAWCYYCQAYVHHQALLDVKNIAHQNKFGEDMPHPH

[6] = test system: histone H3 and H4 acetylation in RAW264.7 cells; test: Histone acetylation by acetic anhydride-d6 labelling and LC-MS/MS; format: cell-based, murine
HDAC8 = target: T2, HDAC8 (Homo sapiens, UniProt Q9BY41); test: human recombinant HDAC inhibition assay; format: biochemical; conditions: read-out: Ki value HDAC8
T2 sequence (Q9BY41 1-377): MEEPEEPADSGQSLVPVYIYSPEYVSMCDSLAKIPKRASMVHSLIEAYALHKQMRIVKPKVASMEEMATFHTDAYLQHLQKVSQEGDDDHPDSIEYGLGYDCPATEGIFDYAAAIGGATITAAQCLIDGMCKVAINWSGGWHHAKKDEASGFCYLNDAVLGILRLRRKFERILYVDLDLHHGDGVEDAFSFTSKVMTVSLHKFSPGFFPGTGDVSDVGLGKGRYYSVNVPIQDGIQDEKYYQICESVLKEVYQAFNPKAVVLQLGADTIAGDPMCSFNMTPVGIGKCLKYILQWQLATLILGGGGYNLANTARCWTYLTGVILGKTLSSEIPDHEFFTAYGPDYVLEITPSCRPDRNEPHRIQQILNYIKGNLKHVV

[7] = target: T3, lysine acetyltransferase 8 (KAT8) (Homo sapiens, UniProt Q9H7Z6); test: KAT8 activity assay; format: biochemical; conditions: N.I. = no inhibition
T3 sequence (Q9H7Z6 1-458): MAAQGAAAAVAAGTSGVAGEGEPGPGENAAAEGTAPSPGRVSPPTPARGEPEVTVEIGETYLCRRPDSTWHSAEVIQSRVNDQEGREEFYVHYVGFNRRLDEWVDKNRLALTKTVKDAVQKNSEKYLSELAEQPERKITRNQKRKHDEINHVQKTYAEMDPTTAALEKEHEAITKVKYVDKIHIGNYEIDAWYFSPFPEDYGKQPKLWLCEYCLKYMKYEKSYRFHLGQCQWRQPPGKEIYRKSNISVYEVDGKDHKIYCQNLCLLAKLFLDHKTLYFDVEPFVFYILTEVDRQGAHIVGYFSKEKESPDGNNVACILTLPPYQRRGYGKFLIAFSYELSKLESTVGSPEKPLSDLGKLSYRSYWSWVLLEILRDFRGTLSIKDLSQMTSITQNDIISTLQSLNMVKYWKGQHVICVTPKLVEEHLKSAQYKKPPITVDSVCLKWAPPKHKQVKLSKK

type I and II HDACs = test: recombinant HDAC inhibition, summary over isoenzymes; format: biochemical, human
[8] = Boc-Lys-(Ac)-AMC as substrate, Lineweaver-Burk plot
[9] = RAW264.7, C646 at 30 μM, downregulation
[10] = C646 at 15, 20, 25 or 30 μM for 6 hrs

Sequence of HDAC2 (Q92769 whole entry): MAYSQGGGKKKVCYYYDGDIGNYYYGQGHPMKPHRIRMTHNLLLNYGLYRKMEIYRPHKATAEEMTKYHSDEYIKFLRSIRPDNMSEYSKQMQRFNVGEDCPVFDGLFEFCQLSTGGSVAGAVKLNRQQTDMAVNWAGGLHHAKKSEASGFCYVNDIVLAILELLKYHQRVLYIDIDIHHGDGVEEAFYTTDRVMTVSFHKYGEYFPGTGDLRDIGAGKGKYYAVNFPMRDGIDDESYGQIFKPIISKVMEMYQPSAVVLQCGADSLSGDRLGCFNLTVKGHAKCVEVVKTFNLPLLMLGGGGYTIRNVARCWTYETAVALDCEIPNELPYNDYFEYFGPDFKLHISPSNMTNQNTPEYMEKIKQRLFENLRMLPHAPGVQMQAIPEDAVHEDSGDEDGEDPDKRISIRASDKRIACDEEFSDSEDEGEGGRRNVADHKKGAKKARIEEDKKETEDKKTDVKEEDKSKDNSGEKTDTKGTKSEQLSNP
Sequence of HDAC3 (O15379 whole entry): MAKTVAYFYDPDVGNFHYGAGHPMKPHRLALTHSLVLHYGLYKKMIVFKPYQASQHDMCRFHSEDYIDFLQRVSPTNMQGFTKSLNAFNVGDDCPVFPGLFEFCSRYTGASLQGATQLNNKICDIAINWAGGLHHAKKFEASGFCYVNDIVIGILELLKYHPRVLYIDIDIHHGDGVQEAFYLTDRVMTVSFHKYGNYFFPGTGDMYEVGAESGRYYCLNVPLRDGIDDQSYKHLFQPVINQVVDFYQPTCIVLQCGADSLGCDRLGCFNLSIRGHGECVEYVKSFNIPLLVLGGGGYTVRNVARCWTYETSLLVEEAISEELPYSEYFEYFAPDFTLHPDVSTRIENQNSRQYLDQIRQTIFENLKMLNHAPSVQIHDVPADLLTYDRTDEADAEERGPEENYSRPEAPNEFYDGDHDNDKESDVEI
Sequence of HDAC3 (Q9Y618 395-489 partner limits assumed): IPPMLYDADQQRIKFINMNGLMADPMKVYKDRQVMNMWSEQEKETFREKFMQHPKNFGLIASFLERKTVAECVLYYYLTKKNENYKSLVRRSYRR
Sequence of HDAC1 (Q13547 whole entry): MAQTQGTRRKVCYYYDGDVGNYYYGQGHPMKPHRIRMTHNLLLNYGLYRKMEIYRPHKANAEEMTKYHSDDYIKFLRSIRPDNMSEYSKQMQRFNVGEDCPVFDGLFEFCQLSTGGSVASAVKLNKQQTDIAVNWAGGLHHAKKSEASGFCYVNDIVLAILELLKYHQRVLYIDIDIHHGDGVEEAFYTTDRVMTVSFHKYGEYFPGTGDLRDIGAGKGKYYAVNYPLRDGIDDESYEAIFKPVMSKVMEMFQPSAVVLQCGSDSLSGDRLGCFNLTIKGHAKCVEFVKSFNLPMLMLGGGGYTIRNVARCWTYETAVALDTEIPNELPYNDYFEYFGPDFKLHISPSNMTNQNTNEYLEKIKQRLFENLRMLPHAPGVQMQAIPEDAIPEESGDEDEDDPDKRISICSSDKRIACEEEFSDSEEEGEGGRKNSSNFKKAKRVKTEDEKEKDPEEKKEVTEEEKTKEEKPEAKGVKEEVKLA

CC1=NN(c2ccc(C(=O)O)cc2)C(=O)/C1=C\c1ccc(-c2cc(C)c(C)cc2[N+](=O)[O-])o1 [C646]
viability of PCLS [1]: decreased viability
Ki value HDAC1 (HDAC1): N.I.
LPS and IFNγ induced NF-κB promoter activity ([2]; C646 at 15 μM or higher (up to 30 μM)): significant inhibition
α-tubulin acetylation ([3]; C646 15 μM for 6 hrs): but not at 15 μM
α-tubulin acetylation ([3]; C646 30 μM for 6 hrs): pronounced inhibition
α-tubulin acetylation ([3]; C646 30 μM for 20 hrs): inhibition of α-tubulin acetylation was also observed
kinetics of inhibition of HDAC2 (HDAC2; [8]): non-competitive inhibition
Ki (HDAC2; read-out: Ki value HDAC2): 15 ± 1 µM
percentage of change in IL-12b gene expression compared to vehicle [4, 9]: 54.2%
percentage of change in TNFα gene expression compared to vehicle [4, 9]: 54.1%
viability of the macrophages (RAW264.7 macrophages): decreased viability
percentage of change in IL-1β gene expression compared to vehicle ([5]; C646 at 25 μM, downregulation): 72.3%
percentage of change in IL-12b gene expression compared to vehicle ([5]; C646 at 25 μM, downregulation): 85.0%
percentage of change in TNFα gene expression compared to vehicle ([5]; C646 at 25 μM, downregulation): 79.1%
percentage of change in iNOS gene expression compared to vehicle ([5]; C646 at 25 μM, downregulation): 58.4%
Ki (HDAC3): 25 ± 5 µM
kinetics of inhibition of HDAC6 (HDAC6; [8]): non-competitive inhibition
Ki (HDAC6; read-out: Ki value HDAC6): 7 ± 1 µM
acetylation status of histone H3 res. 18-26 (H3 K18 and H3 K23) ([6]; C646 30 μM for 6 hrs): small yet significant increase
acetylation status of histone H4 res. 4-17 [6, 10]: No significant changes
acetylation status of other histone H4 peptides [6, 10]: no changes in acetylation status
histone acetylation (H3 res. 18-26, H4 res. 4-17) ([6]; C646 at 15, 20, 25 or 30 μM for 20 hrs, no inflammatory stimulus): No changes in histone acetylation
acetylation status of histone H3 res. 18-26 (H3 K18 and H3 K23) ([6]; C646 at concentrations lower than 30 μM for 6 hrs): not significant
Ki (HDAC8): 11 ± 1 µM
Ki value KAT8 [7]: N.I.
concentration from which histone deacetylases are inhibited (type I and II HDACs): ≥ 7 µM

O=C(CCCCCCC(=O)Nc1ccccc1)NO [SAHA, suberanilohydroxamic acid]
LPS and IFNγ induced NF-κB promoter activity ([2]; SAHA 0.41 μM): further enhanced
α-tubulin acetylation ([3]; SAHA, data not shown): upregulated
percentage of change in IL-1β gene expression compared to vehicle ([4]; RAW264.7, SAHA at 0.41 μM, upregulation): 317%
percentage of change in iNOS gene expression compared to vehicle ([5]; SAHA at 0.41 μM, downregulation): 39.9%
percentage of change in IL-1β gene expression compared to vehicle ([5]; SAHA at 0.41 μM, upregulation): 41.5%
percentage of change in IL-6 gene expression compared to vehicle ([5]; SAHA at 0.41 μM, upregulation): 58.8%
acetylation of histone-derived peptides H4 4-17 and H3 18-26 ([6]; SAHA 0.41 µM for 20 hrs): increased acetylation
